# According to US12441777B2 (NXERA PHARMA UK LIMITED, priority 2018, dated 2025):
# Key:
# Human GLP-1R = target: T1, Human GLP-1R (Homo sapiens, UniProt P43220); assay: Functional antagonism of human GLP1 receptors, cAMP accumulation assay (HiRange cAMP kit, HEK cells infected with GLP-1R Bacmam, GLP-1(7-36) amide at EC80); type: cell-based; conditions: functional pKb from IC50 corrected by Cheng-Prusoff adaptation, GLP-1(7-36) at EC80
# T1 construct: expressed in transfected cells; host or cells: HEK cells infected with GLP-1R BacMam
# T1 sequence (P43220 24-463): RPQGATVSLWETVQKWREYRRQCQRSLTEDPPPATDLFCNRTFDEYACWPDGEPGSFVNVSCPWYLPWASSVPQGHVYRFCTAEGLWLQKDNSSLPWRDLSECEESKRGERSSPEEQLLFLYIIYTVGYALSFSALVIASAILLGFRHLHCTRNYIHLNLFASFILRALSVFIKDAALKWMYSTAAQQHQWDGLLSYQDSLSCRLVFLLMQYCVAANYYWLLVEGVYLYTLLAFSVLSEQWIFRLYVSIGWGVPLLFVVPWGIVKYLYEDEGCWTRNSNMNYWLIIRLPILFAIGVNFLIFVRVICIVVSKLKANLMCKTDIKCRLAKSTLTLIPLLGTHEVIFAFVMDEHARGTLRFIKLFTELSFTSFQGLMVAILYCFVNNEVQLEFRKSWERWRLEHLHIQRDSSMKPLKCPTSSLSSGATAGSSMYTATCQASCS
# Procedure: The method followed a two-step protocol provided in the kit. In brief, HEK cells infected with 1% v/v GLP-1R Bacmam for 24 h were harvested using cell dissociation solution (Gibco), centrifuged and resuspended in the assay buffer (HBSS (Lonza) supplemented with 0.5 mM IBMX (Tocris)). DMSO stock of test compounds were serially diluted in the assay buffer and added to 96-well half area white plates (Costar). Final DMSO concentration in the assay was 0.3%. 20K cells per well were added to plates followed by 30 min incubation (humidified air (5% CO2), 37° C.). […] Intracellular accumulation of cAMP was stopped by addition of the HTRF detection reagents in lysis buffer, provided in the kit. Following 1-hour incubation at RT, plates were read on Pherastar FS (BMG Labtech, Inc.) Dotmatics Studies software was used for fitting data to a four-parameter concentration response curve. Calculated IC50 values were corrected for the agonist concentration using an adaptation of the Cheng-Prusoff equation to generate functional pKb values: […]
# Mouse GLP-1R = target: T2, Mouse GLP-1R (Mus musculus, UniProt O35659); assay: Functional antagonism of mouse GLP1 receptors, cAMP accumulation assay (HitHunter, CHO-K1 cells stably expressing mouse GLP-1R, Exendin-4 at EC80); type: cell-based; conditions: functional pKb from IC50 corrected by Cheng-Prusoff adaptation
# T2 construct: expressed in transfected cells
# T2 sequence (O35659 22-463): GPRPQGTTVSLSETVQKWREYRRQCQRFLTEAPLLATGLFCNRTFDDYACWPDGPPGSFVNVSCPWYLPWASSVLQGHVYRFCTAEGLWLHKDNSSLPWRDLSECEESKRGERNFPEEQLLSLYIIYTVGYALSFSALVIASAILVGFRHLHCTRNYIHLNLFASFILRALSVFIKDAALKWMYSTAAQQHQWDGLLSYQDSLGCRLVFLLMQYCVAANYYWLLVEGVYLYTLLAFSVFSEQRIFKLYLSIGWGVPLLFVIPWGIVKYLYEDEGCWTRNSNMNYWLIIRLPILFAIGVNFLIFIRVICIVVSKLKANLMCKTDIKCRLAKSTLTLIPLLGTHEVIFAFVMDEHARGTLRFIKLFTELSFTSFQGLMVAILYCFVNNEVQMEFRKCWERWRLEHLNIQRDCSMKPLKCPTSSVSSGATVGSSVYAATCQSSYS
# Excerpt: Final DMSO concentration in the assay was 1%. […] Calculated IC50 values were corrected for the agonist concentration using an adaptation of the Cheng-Prusoff equation to generate functional pKb values: […]
substance,measurement,setting,value
exendin(9-39)amide [Ex 9-39],Human GLP-1R antagonist cAMP fpKb,Human GLP-1R,7.8
same,Mouse GLP-1R antagonist cAMP fpKb,Mouse GLP-1R,7.2
